Experimental data reported in patent US10501479B2, “Benzenesulfonyl-asymmetric ureas and medical uses thereof” (HELSINN HEALTHCARE SA, priority 2016, dated 2019).
Where “and” joins values, the source holds several entries; their conditions need not be identical. Equal entries are not always repeated.

Key:
[1] = target: T1, GHSR-1a (HEK293/GHSR1a cell line) (Homo sapiens, UniProt Q92847); assay: Ghrelin antagonist potency (IC50) with calcium FLIPR assay, ghrelin 10 nM; type: cell-based; conditions: ghrelin antagonist potency, read-out: IC50 (Activity)
T1 construct: expressed in transfected cells; host or cells: HEK293/GHSR1a cell line
T1 sequence (Q92847 whole entry): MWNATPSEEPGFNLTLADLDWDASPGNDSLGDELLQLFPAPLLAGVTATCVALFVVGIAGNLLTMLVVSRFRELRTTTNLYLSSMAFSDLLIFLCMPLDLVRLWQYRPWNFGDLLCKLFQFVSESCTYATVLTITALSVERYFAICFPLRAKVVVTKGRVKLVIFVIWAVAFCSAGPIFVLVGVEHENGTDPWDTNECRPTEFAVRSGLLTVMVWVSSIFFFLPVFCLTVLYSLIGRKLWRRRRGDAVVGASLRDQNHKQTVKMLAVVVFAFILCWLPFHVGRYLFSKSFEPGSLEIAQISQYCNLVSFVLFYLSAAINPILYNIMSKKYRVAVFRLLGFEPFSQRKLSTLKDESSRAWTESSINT
Summary of the method: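 Dye preload 30-60 min, RT or 37° C; compound in DMSO. Agonist mode: compound at t=20 sec, Ca2+ read 2 min. Antagonist mode: compound + ghrelin 10 nM at t=20 sec, 2 min read. EC50/IC50 from dose-response curves.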

[2] = Metabolic stability in mouse liver microsomes; type: in vitro ADME
Summary of the method: (§1)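 Parent compound was measured by LC-MS/MS at 0, 10, 30 and 90 min after NADPH-initiated incubation with liver microsomes at 37 °C. Buffer was 100 mM potassium phosphate, pH 7.4; time-zero concentration was taken before NADPH addition.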

[3] = target: T2, recombinant human ghrelin receptor (HEK293/GRLN) (Homo sapiens, UniProt Q92847); assay: Ghrelin inverse agonist potency (EC50) with IP-1 (IP-One HTRF) assay; type: cell-based; conditions: inverse agonist potency, IP-1 assay; read-out: EC50 (Activity)
T2 construct: expressed in transfected cells
T2 sequence (Q92847 whole entry): as above
Summary of the method: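 HEK293/GRLN cells were seeded 18-22 hours before the test, then exposed to compound in stimulation buffer for 1 hour at 37° C, 5% CO2. IP-1 was detected by IP-One HTRF (IP1-d2 plus Tb-cryptate, 1 hour RT), reading 620 and 665 nm; the inverse agonist EC50 was derived from this.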

[4] = Animal PK study in mouse via i.v., p.o. and s.c. administration; type: in vivo; conditions: for PK CLiv / PK Vdiv / PK t1/2iv: i.v.; for PK CLpo / PK Vdpo / PK t1/2po: p.o.
Summary of the method: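 Single i.v. (tail vein), s.c. (neck scruff) or p.o. (gavage) dose to mice or rats; oral vehicle 1–5% DMSO/0.5% methylcellulose, i.v./s.c. vehicle 1–5% DMSO in 20% HP-β-cyclodextrin. Plasma sampled 0.083 (i.v./s.c.) or 0.25 to 24 h, analyzed by LC-MS/MS.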

[5] = Metabolic stability in human liver microsomes; type: in vitro ADME
Summary of the method: as §1

male C57BL/6J mice = assay: Food intake test in mouse (GHSR1a inverse agonists), cumulative food intake at 1, 2, 4, 8 and 24 hrs; type: in vivo
Experimental: Evaluation of Inverse Agonist on Food Intake Test in Mouse:
Male C57BL/6J mice, 18-22 g body weight, were fasted overnight (16 h before compound administration) and placed in a regular light dark cycle (6:00-18:00 light/18:00-6:00 dark). After 1 wk acclimation, animals were sorted into two groups (n=6 each, 2 per cage) based on body weight. Animals in group one were be treated with vehicle and animals in group 2 were treated with the test agent (n=6 for each group). The cumulative food intake was evaluated at 1, 2, 4, 8 and 24 hrs after drug or vehicle treatment. Food intake was measured by subtracting uneaten food from the initial premeasured food.
Food Intake Study—Evaluation of GHSR1a inverse agonists on Food Intake Test in Mouse:
Twelve male C57BL/6J mice, weighing 18-22 g each, were fasted overnight (16 h before compound administration) and placed in a regular light dark cycle (6:00-18:00 light/18:00-6:00 dark). After 1 week acclimation, animals were sorted into two groups (n=6 each, 2 per cage) based on body weight. Animals in group one were treated with carrier minus the test compound. (control group) and animals in group 2 were treated with carrier with the test compound (experimental group). The cumulative food intake was evaluated at 1, 2, 4, 8 and 24 hrs after experimental or control treatment. Food intake was measured by subtracting uneaten food from the initial premeasured food.

[6] = Plasma protein binding (PPB), human; type: in vitro ADME; conditions: read-out: PPB (H)
[7] = Plasma protein binding (PPB), rat; type: in vitro ADME; conditions: read-out: PPB (R) (converted)
[8] = Plasma protein binding (PPB), mouse; type: in vitro ADME
[9] = Plasma protein binding (PPB), dog; type: in vitro ADME; conditions: read-out: PPB (D) (converted)
[10] = Metabolic stability in dog liver microsomes; type: in vitro ADME
Summary of the method: as §1

[11] = Metabolic stability in rat liver microsomes; type: in vitro ADME
Summary of the method: as §1

hERG = hERG (Homo sapiens, UniProt Q12809); assay: hERG inhibition
Sequence of hERG (Q12809 whole entry): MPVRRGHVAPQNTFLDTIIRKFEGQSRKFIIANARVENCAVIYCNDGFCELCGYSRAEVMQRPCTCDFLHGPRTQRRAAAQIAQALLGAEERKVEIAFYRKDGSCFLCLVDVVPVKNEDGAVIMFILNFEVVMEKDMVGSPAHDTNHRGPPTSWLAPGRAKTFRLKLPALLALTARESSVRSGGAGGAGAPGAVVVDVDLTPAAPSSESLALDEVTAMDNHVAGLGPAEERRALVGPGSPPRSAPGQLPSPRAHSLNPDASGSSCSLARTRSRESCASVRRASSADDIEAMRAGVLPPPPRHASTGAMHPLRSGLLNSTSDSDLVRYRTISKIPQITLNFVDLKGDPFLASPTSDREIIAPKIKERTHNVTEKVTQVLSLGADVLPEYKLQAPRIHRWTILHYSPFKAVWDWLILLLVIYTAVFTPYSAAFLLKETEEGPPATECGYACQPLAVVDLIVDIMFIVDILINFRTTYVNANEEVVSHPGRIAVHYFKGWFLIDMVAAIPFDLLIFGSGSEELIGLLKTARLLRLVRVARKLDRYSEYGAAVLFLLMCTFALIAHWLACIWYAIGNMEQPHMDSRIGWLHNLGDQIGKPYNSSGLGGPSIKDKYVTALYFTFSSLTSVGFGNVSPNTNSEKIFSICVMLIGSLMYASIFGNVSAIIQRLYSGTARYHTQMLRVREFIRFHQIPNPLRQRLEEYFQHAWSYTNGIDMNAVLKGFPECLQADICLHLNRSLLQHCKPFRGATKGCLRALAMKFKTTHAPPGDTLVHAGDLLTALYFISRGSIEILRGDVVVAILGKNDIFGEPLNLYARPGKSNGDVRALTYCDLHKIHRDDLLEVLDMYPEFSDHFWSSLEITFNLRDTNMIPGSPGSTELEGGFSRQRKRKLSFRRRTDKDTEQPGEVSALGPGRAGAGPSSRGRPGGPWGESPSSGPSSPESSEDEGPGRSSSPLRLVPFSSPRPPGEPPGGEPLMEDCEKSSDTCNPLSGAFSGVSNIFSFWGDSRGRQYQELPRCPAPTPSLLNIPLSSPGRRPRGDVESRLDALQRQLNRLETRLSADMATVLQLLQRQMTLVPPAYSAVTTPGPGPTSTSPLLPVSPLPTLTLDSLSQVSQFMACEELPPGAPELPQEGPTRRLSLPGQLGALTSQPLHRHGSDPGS

[12] = Animal PK study in rat via i.v., p.o. and s.c. administration; type: in vivo; conditions: rat
[13] = Animal PK study in dog (i.v., p.o.); type: in vivo; conditions: for PK CLiv / PK Vdiv / PK t1/2iv: i.v.; for PK CLpo / PK Vdpo / PK t1/2po: p.o.

| SMILES | IC50 [1] | Metabolic Stability Study M = mouse [2] | EC50 [3] | PK F [4] | PK CLiv [4] | PK Vdiv [4] | PK t1/2iv [4] | PK CLpo [4] | PK Vdpo [4] | PK t1/2po [4] | Metabolic Stability Study H = human [5] | Food Intake Study (male C57BL/6J mice; 30 mg/kg po fasted mice) | fraction unbound [6] | fraction unbound [7] | fraction unbound [8] | fraction unbound [9] | hERG inh (hERG) | also measured |
| --- | --- | --- | --- | --- | --- | --- | --- | --- | --- | --- | --- | --- | --- | --- | --- | --- | --- | --- |
| C[C@H](NC(=O)Nc1ccc(S(=O)(=O)Nc2ccc(CC(C)(C)N(C)C)cc2)cc1)c1cccc(Cl)c1Cl [H0967, (S)-4-(3-(1-(2,3-dichlorophenyl)ethyl)ureido)-N-(4-(2-(dimethylamino)-2-methylpropyl)phenyl) benzenesulfonamide] | 16 nM | 58 µL/min/mg | 4.7 nM | 0.2% | 39 mL/min/kg | 8.62 L/kg | 2.56 h | 11620 mL/min/kg | 2326.2 L/kg | 2.31 h | 38.2 µL/min/mg | 30 mg/kg po fasted - inh 5 mg/kg sc fasted - inh |  |  |  |  |  | Food Intake Study (male C57BL/6J mice; 5 mg/kg sc fasted mice): 30 mg/kg po fasted - inh 5 mg/kg sc fasted - inh |
| CC(C)(N)Cc1ccc(NS(=O)(=O)c2ccc(NC(=O)NCc3cccc(Cl)c3Cl)cc2)cc1 [H0968, N-(4-(2-amino-2-methylpropyl)phenyl)-4-(3-(2,3-dichlorobenzyl)ureido) benzenesulfonamide] | 44 nM | 27.4 µL/min/mg | 5.7 nM |  |  |  |  |  |  |  | 32.5 µL/min/mg | 30 mg/kg po fasted - inh |  |  |  |  |  |  |
| C[C@H](NC(=O)Nc1ccc(S(=O)(=O)Cc2ccc(CC(C)(C)N)cc2)cc1)c1cccc(Cl)c1Cl [H0969, (S)-1-(4-((4-(2-amino-2-methylpropyl)benzyl)sulfonyl)phenyl)-3-(1-(2,3-dichlorophenyl)ethyl)urea] | 53 nM | 74.4 µL/min/mg | 18.9 nM | 1.3% | 7.67 mL/min/kg | 1.97 L/kg | 2.96 h | 450.2 mL/min/kg | 168.2 L/kg | 4.32 h | 19.5 µL/min/mg | 30 mg/kg po fasted - inh |  |  |  |  |  |  |
| C[C@H](NC(=O)Nc1ccc(S(=O)(=O)Cc2ccc(CO)cc2)cc1)c1cccc(Cl)c1Cl [H1060, (S)-1-(1-(2,3-dichlorophenyl)ethyl)-3-(4-((4-(hydroxymethyl)benzyl)sulfonyl)phenyl)urea] | 280 nM | 108.7 µL/min/mg | 40.8 nM | 18.8% | 68.8 mL/min/kg | 8.25 L/kg | 1.37 h | 368 mL/min/kg | 22.4 L/kg | 0.7 h | 40 µL/min/mg |  | 0.0013 | 0.0018 | 0.0019 | 0.0012 |  |  |
| C[C@H](NC(=O)Nc1ccc(S(=O)(=O)Nc2ccc(CO)cc2)cc1)c1cccc(Cl)c1Cl [H1062, (S)-4-(3-(1-(2,3-dichlorophenyl)ethyl)ureido)-N-(4-(hydroxymethyl)phenyl) benzenesulfonamide] | 222 nM | 67.2 µL/min/mg | 58 nM |  |  |  |  |  |  |  | 32.4 µL/min/mg |  | 0.0012 | 0.0012 | 0.0019 | 0.0017 |  |  |
| C[C@H](NC(=O)Nc1ccc(S(=O)(=O)Cc2ccc3c(c2)CCN(C)C3)cc1)c1cccc(Cl)c1Cl [H1071, (S)-1-(1-(2,3-dichlorophenyl)ethyl)-3-(4-(((2-methyl-1,2,3,4-tetrahydroisoquinolin-6-yl)methyl)sulfonyl)phenyl)urea] | 5 nM | 80.7 µL/min/mg and 152.5 µL/min/mg | 1.7 nM | 19.9% | 28.5 mL/min/kg | 2.83 L/kg | 1.15 h | 138 mL/min/kg | 21.1 L/kg | 1.77 h |  |  | 0.0089 | 0.0087 | 0.0098 | 0.0082 |  | Metabolic Stability Study D = dog [10]: 172.6 µL/min/mg and 160.7 µL/min/mg; Metabolic Stability Study R = rat [11]: 274 µL/min/mg and 188 µL/min/mg |
| CC(c1ccc2c(c1)CCNC2)S(=O)(=O)c1ccc(NC(=O)N[C@@H](C)c2cccc(Cl)c2Cl)cc1.Cl (stereo partly drawn) [H1080, 1-((S)-1-(2,3-dichlorophenyl)ethyl)-3-(4-((1-(1,2,3,4-tetrahydroisoquinolin-6-yl)ethyl)sulfonyl)phenyl)urea] | 22.6 nM | H < 10 M < 10 R = not reported D = not reported μL/min/mg | 11.1 nM |  |  |  |  |  |  |  | H < 10 M < 10 R = not reported D = not reported μL/min/mg |  |  |  |  |  | 3.57 µM |  |
| CC(NC(=O)Nc1ccc(S(=O)(=O)Cc2ccc3c(c2)CNC3)cc1)c1ccccc1.Cl (stereo not drawn) [H1148, 1-(4-((isoindolin-5-ylmethyl)sulfonyl)phenyl)-3-(1-phenylethyl)urea] | 10 nM | 21.1 µL/min/mg | 2.9 nM and 3.13 nM |  |  |  | 1.37 h and 2.13 h | 1610 mL/min/kg and 2742 mL/min/kg |  |  | 22.2 µL/min/mg |  | 0.088 | 0.055 | 0.077 |  | 12.52 µM | PK Vdiv ([12]; i.v.): 104.5 (R); L/Kg; PK t1/2iv ([12]; i.v.): 0.51 (R); h; PK F [13]: 15.7 (D) %; PK CLiv [13]: 12 mL/min/kg; PK Vdiv [13]: 2.34 (D) L/Kg; PK t1/2iv [13]: 2.32 (D) h; PK CLpo [13]: 80.3 mL/min/kg; PK Vdpo [13]: (M); 14.74 (D) L/Kg; PK t1/2po [13]: 2.34 (D) h |
| CC(NC(=O)Nc1ccc(S(=O)(=O)Cc2ccc3c(c2)CN(C)C3)cc1)c1ccccc1 (stereo not drawn) [H1194, 1-(4-(((2-methylisoindolin-5-yl)methyl)sulfonyl)phenyl)-3-(1-phenylethyl)urea] | 38.3 nM | 64.2 µL/min/mg | 16.8 nM | 15.56 (M); % | 60.2 mL/min/kg | 6.33 L/kg | 1.21 (M); h | 380 mL/min/kg | 53.3 (M); L/Kg | 1.62 (M); h | 111.6 µL/min/mg |  | 0.076 |  | 0.06 |  | 22.6 µM | Metabolic Stability Study D = dog [10]: 14 µL/min/mg; Metabolic Stability Study R = rat [11]: 56 µL/min/mg; PK F [12]: 11.9 (R); %; PK CLiv ([12]; i.v.): 94.7 mL/min/kg; PK Vdiv ([12]; i.v.): 8.86 (R); L/Kg; PK t1/2iv ([12]; i.v.): 1.08 (R); h; PK CLpo ([12]; p.o.): 848 mL/min/kg; PK Vdpo ([12]; p.o.): 232.2 (R); L/Kg; PK t1/2po ([12]; p.o.): 4.54 (R); h; PK F [13]: 54.07 (D) %; PK CLiv [13]: 16.7 mL/min/kg; PK Vdiv [13]: 2.11 (D) L/Kg; PK t1/2iv [13]: 1.44 (D) h; PK CLpo [13]: 30.7 mL/min/kg; PK Vdpo [13]: 4.05 (D) L/Kg; PK t1/2po [13]: 1.5 (D) h |
